From ChEMBL document CHEMBL1138605, “Identification of 3-substituted N-benzhydryl-nortropane analogs as nociceptin receptor ligands for the management of cough and anxiety” (Bioorg Med Chem Lett, 2009)
pEC50, pKi: −log10 of the molar value. Activity calls are given as the source filed them. The calls are words filed in the database; no cut-off is given here.

Key:
[1] = molecular target: T1, Nuclear receptor subfamily 1 group I member 2 (Homo sapiens, UniProt O75469); assay: Activity at PXR in human hepatocytes assessed as induction of CYP3A4 activity at 1 uM relative rifampicin; format: cell-based, Hepatocyte
T1 sequence (O75469 whole entry): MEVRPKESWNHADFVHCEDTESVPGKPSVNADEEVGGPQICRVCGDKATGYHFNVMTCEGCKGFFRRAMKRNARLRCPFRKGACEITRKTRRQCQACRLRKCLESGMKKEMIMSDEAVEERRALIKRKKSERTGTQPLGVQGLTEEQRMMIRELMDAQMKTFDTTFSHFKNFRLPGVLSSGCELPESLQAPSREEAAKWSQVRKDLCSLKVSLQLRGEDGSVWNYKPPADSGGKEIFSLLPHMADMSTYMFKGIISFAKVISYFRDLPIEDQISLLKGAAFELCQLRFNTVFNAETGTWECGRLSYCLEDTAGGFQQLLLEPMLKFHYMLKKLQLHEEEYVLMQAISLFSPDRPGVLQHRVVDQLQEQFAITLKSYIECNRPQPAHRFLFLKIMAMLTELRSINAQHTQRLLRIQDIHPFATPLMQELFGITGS

Mu-type opioid receptor [2] = molecular target: T2, Mu-type opioid receptor (Homo sapiens, UniProt P35372); assay: Displacement of [3H]diprenorphine from human mu opioid receptor expressed in CHO cells; format: cell-based
Nociceptin receptor [3] = molecular target: T3, Nociceptin receptor (Homo sapiens, UniProt P41146); assay: Displacement of [125I][Tyr14]nociceptin from human cloned ORL1 receptor expressed in CHO cells; format: cell-based
Mu-type opioid receptor [4] = molecular target: T2, Mu-type opioid receptor; assay: Agonist activity at human mu opioid receptor assessed as stimulation of GTPgammaS binding at 5.5 uM; format: functional
Nociceptin receptor [5] = molecular target: T3, Nociceptin receptor; assay: Agonist activity at human cloned ORL1 receptor assessed as stimulation of GTPgammaS binding; format: functional
Nociceptin receptor [6] = molecular target: T3, Nociceptin receptor; assay: Agonist activity at human cloned ORL1 receptor assessed as stimulation of GTPgammaS binding at 5.5 uM; format: functional
Mu-type opioid receptor [7] = molecular target: T2, Mu-type opioid receptor; assay: Agonist activity at human mu opioid assessed as stimulation of GTPgammaS binding; format: functional
Nociceptin receptor [8] = molecular target: T3, Nociceptin receptor; assay: Agonist activity at human cloned ORL1 receptor assessed as stimulation of GTPgammaS binding at 10 uM; format: functional
Mu-type opioid receptor [9] = molecular target: T2, Mu-type opioid receptor; assay: Agonist activity at human mu opioid receptor assessed as stimulation of GTPgammaS binding at 10 uM; format: functional
Rattus norvegicus = species: Rattus norvegicus; assay: Anxiolytic like activity in rat assessed as conditioned lick suppression after 2 hrs; format: functional
Homo sapiens = species: Homo sapiens; assay: Selectivity for human cloned ORL1 receptor over human mu opioid receptor
Cavia porcellus [10] = assay: Antitussive activity in po dosed guinea pig GPPV model assessed as reduction of capsaicin-induced coughing after 2 hrs administered 15 mins before capsaicin challenge; format: functional
Cavia porcellus [11] = assay: Antitussive activity in guinea pig GPPV model assessed as reduction of capsaicin-induced coughing at 0.3 mg/kg, po after 2 hrs administered 15 mins before capsaicin challenge; format: functional
[12] = molecular target: Kappa-type opioid receptor (Homo sapiens, UniProt P41145); assay: Displacement of [3H]diprenorphine from human kappa opioid receptor expressed in CHO cells; format: cell-based
[13] = molecular target: Delta-type opioid receptor (Homo sapiens, UniProt P41143); assay: Displacement of [3H]diprenorphine from human delta opioid receptor expressed in CHO cells; format: cell-based
[14] = Ratio of ED50 for antitussive activity in guinea pig GPPV model to ED50 for anxiolytic like activity in rat; format: functional
Cavia porcellus [15] = species: Cavia porcellus; assay: Anxiolytic like activity in guinea pig assessed as reduction in number of vocalization produced due to separation measured after 2 hrs; format: functional
Cavia porcellus [16] = assay: Anxiolytic like activity in guinea pig assessed as reduction in number of vocalization produced due to separation measured at 3 mg/kg, po after 2 hrs; format: functional, organism-based; set-up: dose 3 mg/kg

T2 sequence (P35372 whole entry): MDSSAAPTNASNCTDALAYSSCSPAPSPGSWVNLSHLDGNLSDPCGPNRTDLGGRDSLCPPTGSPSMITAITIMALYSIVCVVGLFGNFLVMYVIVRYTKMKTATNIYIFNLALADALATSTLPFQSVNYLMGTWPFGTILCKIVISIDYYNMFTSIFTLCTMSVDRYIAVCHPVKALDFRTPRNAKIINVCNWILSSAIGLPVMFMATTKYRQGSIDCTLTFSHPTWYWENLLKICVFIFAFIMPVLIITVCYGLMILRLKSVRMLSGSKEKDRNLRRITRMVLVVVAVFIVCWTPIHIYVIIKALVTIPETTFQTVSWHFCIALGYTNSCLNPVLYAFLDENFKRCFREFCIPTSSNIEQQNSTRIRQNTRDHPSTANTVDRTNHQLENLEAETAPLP
T3 sequence (P41146 whole entry): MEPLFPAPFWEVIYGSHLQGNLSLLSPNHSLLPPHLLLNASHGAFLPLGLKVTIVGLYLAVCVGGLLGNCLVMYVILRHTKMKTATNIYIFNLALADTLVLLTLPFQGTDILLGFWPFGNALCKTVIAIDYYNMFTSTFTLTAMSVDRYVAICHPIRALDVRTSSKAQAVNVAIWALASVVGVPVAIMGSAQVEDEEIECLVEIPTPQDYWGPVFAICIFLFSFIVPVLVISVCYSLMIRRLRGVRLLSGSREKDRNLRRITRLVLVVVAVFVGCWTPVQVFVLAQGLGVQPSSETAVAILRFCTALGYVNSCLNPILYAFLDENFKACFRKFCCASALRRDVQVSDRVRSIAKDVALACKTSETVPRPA
Sequence of Delta-type opioid receptor (P41143 whole entry): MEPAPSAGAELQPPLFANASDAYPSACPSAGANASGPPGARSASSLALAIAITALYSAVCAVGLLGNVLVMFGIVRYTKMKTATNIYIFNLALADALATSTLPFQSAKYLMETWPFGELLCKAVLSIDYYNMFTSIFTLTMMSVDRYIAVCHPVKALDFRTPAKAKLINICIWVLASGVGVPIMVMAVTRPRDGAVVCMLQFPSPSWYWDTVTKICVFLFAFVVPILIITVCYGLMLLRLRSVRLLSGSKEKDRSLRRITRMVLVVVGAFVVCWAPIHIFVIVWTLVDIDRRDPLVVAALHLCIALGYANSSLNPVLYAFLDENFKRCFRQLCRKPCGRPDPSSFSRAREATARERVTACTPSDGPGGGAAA
Sequence of Kappa-type opioid receptor (P41145 whole entry): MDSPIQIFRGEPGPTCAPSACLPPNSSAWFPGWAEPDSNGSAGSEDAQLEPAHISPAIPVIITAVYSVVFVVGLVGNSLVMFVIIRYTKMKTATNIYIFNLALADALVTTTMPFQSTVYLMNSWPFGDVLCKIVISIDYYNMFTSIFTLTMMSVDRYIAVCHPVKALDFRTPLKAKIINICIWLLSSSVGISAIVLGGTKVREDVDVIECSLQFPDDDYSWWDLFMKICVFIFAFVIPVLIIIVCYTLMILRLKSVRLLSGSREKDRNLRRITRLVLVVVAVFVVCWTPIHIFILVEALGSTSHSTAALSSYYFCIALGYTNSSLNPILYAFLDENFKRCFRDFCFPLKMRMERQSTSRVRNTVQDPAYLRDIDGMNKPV

Compound | Ratio [1] | pKi (Mu-type opioid receptor [2]) | pKi (Nociceptin receptor [3]) | fold change (FC) (Homo sapiens) | other results
NC(=O)[C@]1(c2cccnc2)C[C@H]2CC[C@@H](C1)N2C(c1ccccc1Cl)c1ccccc1Cl | 0.4 | 7.15 | 8.52 |  | 
COC(=O)N[C@]1(Cc2ccc(Cl)cc2)C[C@H]2CC[C@@H](C1)N2C(c1ccccc1Cl)c1ccccc1Cl | 1.1 |  | 7.25 |  | Activity (Mu-type opioid receptor [4]): 59%; pEC50 (Nociceptin receptor [5]): 7.85; Activity (Nociceptin receptor [6]): 85%; pEC50 (Mu-type opioid receptor [7]): 5.81
NC(=O)[C@]1(c2ccc(Cl)cn2)C[C@H]2CC[C@@H](C1)N2C(c1ccccc1Cl)c1ccccc1Cl | 0.27 | 6.84 | 7.82 |  | Activity (Nociceptin receptor [8]): 145%; pEC50 (Nociceptin receptor [5]): 7.36; pEC50 (Mu-type opioid receptor [7]): 6.43; Activity (Mu-type opioid receptor [9]): 97%; ED50 (Rattus norvegicus): 2.4 mg/kg
NC(=O)[C@]1(c2ccc(Br)cn2)C[C@H]2CC[C@@H](C1)N2C(c1ccccc1Cl)c1ccccc1Cl | 0.09 | 6.82 | 7.54 | 4 | Activity (Nociceptin receptor [8]): 75%; pEC50 (Nociceptin receptor [5]): 7.20; pEC50 (Mu-type opioid receptor [7]): 6.38; Activity (Mu-type opioid receptor [9]): 89%
NC(=O)[C@]1(c2cccc(F)n2)C[C@H]2CC[C@@H](C1)N2C(c1ccccc1Cl)c1ccccc1Cl | 1.06 | 6.46 | 8.00 | 35 | 
NC(=O)[C@]1(c2ccc(C(F)(F)F)cn2)C[C@H]2CC[C@@H](C1)N2C(c1ccccc1Cl)c1ccccc1Cl |  |  | 6.91 | 4 | 
NC(=O)[C@]1(c2cc(CF)c(F)cn2)C[C@H]2CC[C@@H](C1)N2C(c1ccccc1Cl)c1ccccc1Cl | 0.77 | 6.44 | 7.72 |  | 
COC(=O)N[C@]1(c2ccc(Cl)cn2)C[C@H]2CC[C@@H](C1)N2C(c1ccccc1Cl)c1ccccc1Cl | 1.06 | 6.02 | 7.92 | 74 | 
NC(=O)[C@]1(c2cc(F)cc(F)n2)C[C@H]2CC[C@@H](C1)N2C(c1ccccc1Cl)c1ccccc1Cl | 0.55 | 6.33 | 7.82 |  | 
NC(=O)[C@]1(c2ccc(Br)nc2)C[C@H]2CC[C@@H](C1)N2C(c1ccccc1Cl)c1ccccc1Cl |  | 7.34 | 7.89 |  | 
COc1ccc2c3c1O[C@H]1[C@@H](O)C=C[C@H]4[C@@H](C2)N(C)CC[C@@]341 [CODEINE] |  |  |  |  | ED50 (Cavia porcellus [10]): 6.7 mg/kg
NC(=O)[C@]1(c2ncc(F)cc2F)C[C@H]2CC[C@@H](C1)N2C(c1ccccc1Cl)c1ccccc1Cl |  |  | 7.33 |  | 
CC(=O)N[C@]1(c2ccccn2)C[C@H]2CC[C@@H](C1)N2C(c1ccccc1Cl)c1ccccc1Cl | 1.97 | 6.51 | 8.22 | 52 | Activity (Nociceptin receptor [8]): 84%; pEC50 (Nociceptin receptor [5]): 7.72; pEC50 (Mu-type opioid receptor [7]): 5.71; Activity (Mu-type opioid receptor [9]): 68%
CC(=O)N[C@]1(c2ccc(F)cn2)C[C@H]2CC[C@@H](C1)N2C(c1ccccc1Cl)c1ccccc1Cl | 1.47 | 6.22 | 8.00 | 60 | 
NC(=O)[C@]1(c2ccc(O)cn2)C[C@H]2CC[C@@H](C1)N2C(c1ccccc1Cl)c1ccccc1Cl |  |  | 7.14 | 4 | 
NC(=O)[C@]1(c2cc(C(=O)O)c(F)cn2)C[C@H]2CC[C@@H](C1)N2C(c1ccccc1Cl)c1ccccc1Cl |  |  | < 6.00 |  | 
N[C@]1(c2ccc(F)cn2)C[C@H]2CC[C@@H](C1)N2C(c1ccccc1Cl)c1ccccc1Cl | 0.23 | 6.68 | 8.15 | 32 | Activity (Cavia porcellus [11]): inactive
COc1ccc([C@@]2(C(N)=O)C[C@H]3CC[C@@H](C2)N3C(c2ccccc2Cl)c2ccccc2Cl)nc1 | 0.19 | 6.88 | 7.66 |  | 
COC(=O)c1ccc([C@@]2(C(N)=O)C[C@H]3CC[C@@H](C2)N3C(c2ccccc2Cl)c2ccccc2Cl)nc1 |  |  | < 6.00 | 4 | 
NC(=O)[C@]1(c2ccc(F)cn2)C[C@H]2CC[C@@H](C1)N2C(c1ccccc1Cl)c1ccccc1Cl | 0.29 | 6.91 | 8.15 | 37 | Activity (Nociceptin receptor [8]): 95%; pKi [12]: 5.79; pEC50 (Nociceptin receptor [5]): 7.70; pKi [13]: 5.48; ED50 (Cavia porcellus [10]): 0.02 mg/kg; Ratio ED50 [14]: 15; pEC50 (Mu-type opioid receptor [7]): 6.13; ED50 (Cavia porcellus [15]): 0.3 mg/kg; ED50 (Rattus norvegicus): 1.7 mg/kg

Compound | Ratio [1] | pKi (Mu-type opioid receptor [2]) | pKi (Nociceptin receptor [3]) | fold change (FC) (Homo sapiens) | other results
N[C@]1(c2ccccn2)C[C@H]2CC[C@@H](C1)N2C(c1ccccc1Cl)c1ccccc1Cl | 0.47 | 6.46 | 8.00 | 32 | Activity (Cavia porcellus [11]): inactive
CN(C)[C@]1(c2ccccn2)C[C@H]2CC[C@@H](C1)N2C(c1ccccc1Cl)c1ccccc1Cl |  | 6.08 | 7.38 |  | 
NC(=O)[C@]1(c2ccncc2)C[C@H]2CC[C@@H](C1)N2C(c1ccccc1Cl)c1ccccc1Cl |  | 6.58 | 7.10 | 20 | 
NC(=O)[C@]1(c2cc(F)c(F)cn2)C[C@H]2CC[C@@H](C1)N2C(c1ccccc1Cl)c1ccccc1Cl | 0.18 | 7.13 | 8.05 |  | 
COC(=O)N[C@]1(c2ccccn2)C[C@H]2CC[C@@H](C1)N2C(c1ccccc1Cl)c1ccccc1Cl | 0.98 | 6.13 | 8.00 | 74 | Activity (Nociceptin receptor [8]): 92%; pEC50 (Nociceptin receptor [5]): 7.06; pEC50 (Mu-type opioid receptor [7]): 5.42; Activity (Mu-type opioid receptor [9]): 52%
N#Cc1ccc([C@@]2(C(N)=O)C[C@H]3CC[C@@H](C2)N3C(c2ccccc2Cl)c2ccccc2Cl)nc1 |  | 6.32 | 7.12 | 4 | 
NC(=O)[C@@]1(Cc2ccc(F)cc2)C[C@H]2CC[C@@H](C1)N2C(c1ccccc1Cl)c1ccccc1Cl | 0.48 | 7.07 | 8.52 |  | Activity (Nociceptin receptor [8]): 108%; pEC50 (Nociceptin receptor [5]): 7.96; pEC50 (Mu-type opioid receptor [7]): 6.27; Activity (Mu-type opioid receptor [9]): 107%
Cc1ccc([C@@]2(C(N)=O)C[C@H]3CC[C@@H](C2)N3C(c2ccccc2Cl)c2ccccc2Cl)nc1 | 0.4 | 7.59 | 8.22 |  | 
NC(=O)[C@]1(c2nc(F)ccc2F)C[C@H]2CC[C@@H](C1)N2C(c1ccccc1Cl)c1ccccc1Cl | 0.83 |  | 7.80 |  | 
NC(=O)C1(C2CCCCN2)C[C@H]2CC[C@H](C1)N2C(c1ccccc1Cl)c1ccccc1Cl (relative stereo) |  | 6.32 | 7.77 |  | 
NC(=O)C[C@]1(Cc2ccc(O)cc2)C[C@H]2CC[C@@H](C1)N2C(c1ccccc1Cl)c1ccccc1Cl | 0.51 |  | 7.77 |  | 
NC(=O)C[C@]1(Cc2ccc(F)cc2)C[C@H]2CC[C@@H](C1)N2C(c1ccccc1Cl)c1ccccc1Cl | 0.35 | 6.72 | 8.52 | 63 | Activity (Cavia porcellus [11]): 38%; Activity (Cavia porcellus [16]): inactive
NC(=O)[C@]1(c2ccc(N)cn2)C[C@H]2CC[C@@H](C1)N2C(c1ccccc1Cl)c1ccccc1Cl |  | 6.69 | 7.51 | 4 | 
NC(=O)c1ccc([C@@]2(C(N)=O)C[C@H]3CC[C@@H](C2)N3C(c2ccccc2Cl)c2ccccc2Cl)nc1 |  | 5.88 | 6.40 | 4 | 
CC(=O)NC[C@]1(c2ccccc2)C[C@H]2CC[C@@H](C1)N2C(c1ccccc1Cl)c1ccccc1Cl | 0.94 |  | 7.70 |  | pEC50 (Nociceptin receptor [5]): 6.57; ED50 (Cavia porcellus [10]): 0.19 mg/kg
N[C@]1(Cc2ccc(Cl)cc2)C[C@H]2CC[C@@H](C1)N2C(c1ccccc1Cl)c1ccccc1Cl |  | 6.35 | 7.44 |  | 
NC(=O)[C@]1(Cc2ccc(Cl)cc2)C[C@H]2CC[C@@H](C1)N2C(c1ccccc1Cl)c1ccccc1Cl | 0.67 | 6.55 | 8.00 |  | 
COC(=O)NC1(c2ccc(F)cn2)C[C@H]2CC[C@H](C1)N2C(c1ccccc1Cl)c1ccccc1Cl (relative stereo) | 1.38 | 6.05 | 7.92 | 74 | 
NC(=O)[C@]1(c2ccccn2)C[C@H]2CC[C@@H](C1)N2C(c1ccccc1Cl)c1ccccc1Cl | 0.79 | 7.28 | 8.40 |  | 
